According to US20140031388A1, “AKT INACTIVATION BY TOCOPHERYL DERIVATIVES” (priority 2012, published 2014):
Read-outs that look alike come from different tables or passages of the source.

Tests used:
PC-3 cells = experiment: MTT viability assay, PC-3; assay type: cell-based; conditions: Homo sapiens
Description: (§1) The prostate cancer cell lines, LNCaP and PC-3, were purchased from American Type Culture Collection (Manassas, Va.) and maintained in RPMI 1640 medium containing 10% heat-inactivated fetal bovine serum at 37° C. in a humidified incubator containing 5% CO2. The LNCaP-abl cells were a generous gift from Dr. Qianben Wang (The Ohio State University). Normal prostate epithelial cells were purchased from Lonza (Walkersville, Md.) and were cultured in the vendor-recommended defined prostate epithelial cell growth medium. For experiments, LNCaP cells were plated on poly-D-lysine-coated culture flasks at a density of 12,000 cells per cm^2 surface area for 24 hours, followed by treatment with test agents in serum-free RPMI 1640 medium. The α- and γ-tocopherols were purchased from Sigma-Aldrich (St. Louis, Mo.). The tocopherol derivatives, α- and γ-VE5, were synthesized by the inventors.
(§2) LNCaP cells were plated into poly-D-lysine-coated 96-well plates and PC-3 and LNCaP-abl cells into uncoated plates at the density of 5,000 cells per well in the presence of 10% FBS. Normal prostate epithelial cells were plated into uncoated plates at a density of 8,000 cells per well. […] After 24 hours of treatment, cells were incubated with MTT [3-(4,5-dimethylthiazol-2-yl)-2,5-diphenyl-2H-tetrazolium bromide] (TCI America; 0.5 mg/ml, final concentration) for an additional 2 hours. The medium was then removed from each well and replaced with DMSO to dissolve the reduced MTT dye for subsequent colorimetric measurement of absorbance at 595 nm. Cell viabilities are calculated as percentages of that in the corresponding vehicle-treated control group.

[1] = molecular target: T1, PH domain of Akt (GST-PH domain fusion protein) (Homo sapiens, UniProt P31749); experiment: Surface plasmon resonance binding, Akt PH domain; conditions: Table 3; binding affinities to the Akt PH domain; read-out: Kd
T1 construct: made in house
T1 sequence (P31749 5-108 limits assumed): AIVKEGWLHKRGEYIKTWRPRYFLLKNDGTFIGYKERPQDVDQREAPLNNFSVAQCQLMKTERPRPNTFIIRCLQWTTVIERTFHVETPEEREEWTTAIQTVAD
From the text: The cDNA fragments corresponding to the putative PH domain sequences of PHLPP1 (+115 to +372), PDK1 (+1225 to +1671), Akt1 (+1 to +447) and ILK (+538 to +646) were PCR-amplified using the plasmids pcDNA-HA-PHLPP1, pWZL-Neo-Myr-FLAG-PDPK1, pcDNA-HA-PKB-T308D-S473D, and pCMV-SPORT-ILK (Addgene) as templates. The PCR products were then cloned into EcoRI/XhoI sites of the pGEX-4T1 expression vector (GE Healthcare Life Sciences) to generate four constructs (pGEX-4T1-PHLPP1, pGEX-4T1-PDPK1, pGEX-4T1-AKT1, pGEX-4T1-ILK) for the expression of GST-PH domain fusion proteins. The mutated Akt1 Y38G PH domain was generated from pGEX-4T1-AKT1 by site-directed mutagenesis using the QuikChange II XL Site-Directed Mutagenesis Kit (Agilent Technologies). The expression and purification of GST-PH domain fusion proteins were performed essentially as described previously. Thomas et al., Curr Biol 12, 1256 (2002). The purified PH domains were analyzed by SDS-PAGE using an overloaded gel with purities were estimated to be >95% using ImageJ software.
Binding experiments were performed using a Biacore T100 system (GE Healthcare, Piscataway, N.J.). The GST-PH domain fusion proteins were immobilized on a CM5 S Sensorchip using Biacore's Amine Coupling Kit to a level of 17,000 response units. VE5 compounds and di-octanoyl PIP3 at concentrations ranging from 0.1 to 100 μM and 1 to 20 μm, respectively, were injected at a high flow rate (30 μL/min) over the biosensor surface for binding analyses. DMSO concentrations in all samples and running buffer were 1% (v/v) or less. Data were analyzed using Biacore T100 Evaluation Software.

LNCaP cells = experiment: MTT viability assay, LNCaP; assay type: cell-based; conditions: Homo sapiens, 1% FBS-containing or serum-free RPMI 1640 medium for 24 h
Description: as §1, §2

LNCaP and PC-3 cells = experiment: MTT viability assay, one value stated for both prostate cancer lines; assay type: cell-based; conditions: MTT, serum-free medium; one value for LNCaP and PC-3; read-out: IC50, antiproliferative effect / viability
Description: as §1
(§3) LNCaP cells were plated into poly-D-lysine-coated 96-well plates and PC-3 and LNCaP-abl cells into uncoated plates at the density of 5,000 cells per well in the presence of 10% FBS. Normal prostate epithelial cells were plated into uncoated plates at a density of 8,000 cells per well. Exposure to test agents in serum-free medium was initiated 24 hours later. After 24 hours of treatment, cells were incubated with MTT [3-(4,5-dimethylthiazol-2-yl)-2,5-diphenyl-2H-tetrazolium bromide] (TCI America; 0.5 mg/ml, final concentration) for an additional 2 hours. The medium was then removed from each well and replaced with DMSO to dissolve the reduced MTT dye for subsequent colorimetric measurement of absorbance at 595 nm. Cell viabilities are calculated as percentages of that in the corresponding vehicle-treated control group.

[2] = test system: Normal prostate epithelial cells; experiment: Viability / apoptosis in normal prostate epithelial cells; assay type: cell-based
Description: as §1, §3

[3] = test system: phosphorylation of Ser473 in Akt; experiment: Western blot of Akt phosphorylation at Ser473; assay type: cell-based; conditions: LNCaP and PC-3 cells, Thr308 not altered
Description: (§4) Cells were exposed to the test agents in 10-cm dishes for 24 hours and then collected by scraping. The cell pellets were washed once with PBS, and then lysed at 4° C. over 30 min of incubation in a sodium dodecyl sulfate (SDS) lysis buffer containing 1% SDS, 50 mM Tris HCl (pH 8.1), 10 mM EDTA and […] protease inhibitor cocktail (Sigma-Aldrich). The cell debris was pelleted by centrifugation for 20 min at 14,000×g, and 1 μl of each supernatant was used for determination of protein concentration using a colorimetric bicinchoninic assay (Pierce, Rockford, Ill.). The remaining sample was added to equal volume of 2×SDS-polyacrylamide gel electrophoresis sample loading buffer (62.5 mM Tris-HCl, pH 6.8, 4% SDS, 5% β-mercaptoethanol, 20% glycerol, 0.1% bromophenol blue), followed by incubation in boiling water for 5 min. Equivalent amounts of total protein were resolved in SDS-polyacrylamide gels, and then transferred to nitrocellulose membranes using a semidry transfer cell. The transblotted membrane was washed twice with Tris-buffered saline containing 0.1% Tween 20 (TBST). After blocking with TBST containing 5% nonfat milk for 40 min, the membrane was incubated with the appropriate primary antibody (1:1000) in TBST-1% nonfat milk at 4° C. overnight. The membrane was then washed three times with TBST for a total of 15 min, followed by incubation with goat anti-rabbit or anti-mouse IgG-horseradish peroxidase conjugates (1:2000) for 1 hour at room temperature and four washes with TBST for a total of 1 hour. The immunoblots were visualized by enhanced chemiluminescence (GE Healthcare Life Sciences).

[4] = test system: mTORC2 (mTOR, rictor, SGK, PKCα); experiment: Western blot of mTORC2 components and downstream targets; assay type: cell-based
Description: as §4

[5] = PC-3, 1% FBS-containing or serum-free RPMI 1640 medium for 24 h, read-out: IC50 (μM) PC-3
[6] = Table 3, antitumor activities against PC-3 cells, read-out: IC50
[7] = PC-3, Table 4, effect of chain length on antiproliferative activity, read-out: IC50

Structure (SMILES) | IC50 (PC-3 cells; [5]) [µM] | IC50 (LNCaP cells) [µM] | also measured
Cc1cc2c(cc1O)C(=O)CC(C)(CCCC(C)C)O2 (racemic) [Compound 34, 6-hydroxy-2,7-dimethyl-2-(4-methylpentyl)chroman-4-one] | – | 30 | –
CC(C)CCCC1(C)CCc2c(O)cc(N3CCCC3)cc2O1 (racemic) [Compound 36, 2-methyl-2-(4-methylpentyl)-7-(pyrrolidin-1-yl)chroman-5-ol] | – | 21 | –
CCCCCCCCC1(C)CCc2cc(O)cc(C)c2N1 (stereo not drawn) [Compound 10, 2,8-dimethyl-2-octyl-1,2,3,4-tetrahydro-quinolin-6-ol] | 8.5 | – | IC50 (PC-3 cells; [7]): 8.5 µM
Cc1c(O)cc2c(c1C)O[C@](C)(CCC[C@H](C)CCC[C@H](C)CCCC(C)C)CC2 [γ-tocopherol, reference compound] | – | – | IC50 (LNCaP and PC-3 cells): 100 to 150 µM; apoptosis in normal prostate epithelial cells [2]: resistant; effect on phosphorylation of Akt at Ser473 [3]: dose-dependently reduced; abundance or phosphorylation of mTORC2 components and targets (mTOR, rictor, SGK, PKCα) [4]: no effect
CC(C)CCCC1(C)CC(=O)c2c(O)cc(N3CCCC3)cc2O1 (racemic) [Compound 37, 5-hydroxy-2-methyl-2-(4-methylpentyl)-7-(pyrrolidin-1-yl)chroman-4-one] | – | > 50 | –
Cc1c(O)cc2c(c1C)NC(C)(CCCC(C)C)CC2 (stereo not drawn) [Compound 9, 2,7,8-trimethyl-2-(4-methylpentyl)-1,2,3,4-tetrahydroquinolin-6-ol] | 15 | – | IC50 (PC-3 cells; [6]): 15 µM; Kd [1]: 0.1 µM
Cc1c(C)c2c(c(C)c1O)CC[C@@](C)(CCCC(C)CCCC(C)C)O2 (stereo partly drawn) [Compound 28, (2R)-2-(4,8-dimethylnonyl)-2,5,7,8-tetramethylchroman-6-ol] | – | 42 | –
Cc1c(O)cc2c(c1C)O[C@](C)(CCCC(C)CCCC(C)C)CC2 (stereo partly drawn) [Compound 27, (2R)-2-(4,8-dimethylnonyl)-2,7,8-trimethylchroman-6-ol] | – | 30 | –
CC(C)CCCC1(C)CC(=O)c2cc(O)ccc2O1 (racemic) [Compound 33, 6-hydroxy-2-methyl-2-(4-methylpentyl)chroman-4-one] | – | 30 | –
CC(C)CCCC1(C)CCc2c(O)cccc2O1 (racemic) [Compound 31, 2-methyl-2-(4-methylpentyl)chroman-5-ol] | – | 18 | –

Second part, led by results:

IC50 (PC-3 cells; [5]) [µM] | IC50 (LNCaP cells) [µM] | Structure (SMILES) | also measured
9 | – | Cc1cc(O)cc2c1OC(C)(CCCC(C)C)CC2 (stereo not drawn) [Compound 2, 2,8-dimethyl-2-(4-methylpentyl)chroman-6-ol] | IC50 (PC-3 cells; [6]): 9 µM; Kd [1]: 0.6 µM
> 30 | – | COCCCC1(C)CCc2cc(O)cc(F)c2O1 (stereo not drawn) [Compound 11, 8-fluoro-2-(3-methoxypropyl)-2-methyl-chroman-6-ol] | IC50 (PC-3 cells; [7]): > 30 µM
– | > 50 | CC(C)CCCC1(C)CCc2ccc(O)c(O)c2O1 (racemic) [Compound 35, 2-methyl-2-(4-methylpentyl)chroman-7,8-diol] | –
27 | – | CC(C)CCCC1(C)CCc2cc(O)cc(O)c2O1 (stereo not drawn) [Compound 4, 2-methyl-2-(4-methylpentyl)chroman-6,8-diol] | IC50 (PC-3 cells; [6]): 27 µM; Kd [1]: 2 µM
– | > 50 | CC(C)CCCC1(C)CCc2cc(N)ccc2O1 (racemic) [Compound 32, 2-methyl-2-(4-methylpentyl)chroman-6-amine] | –
8 | – | CC(C)CCCC1(C)CCc2cc(O)cc(C(F)(F)F)c2O1 (racemic) [Compound 3, 2-methyl-2-(4-methylpentyl)-8-(trifluoro-methyl)chroman-6-ol] | IC50 (PC-3 cells; [6]): 8 µM; Kd [1]: 0.7 µM
7 | – | CC(C)CCCC1(C)CCc2cc(O)cc(F)c2O1 (stereo not drawn) [Compound 7, 8-fluoro-2-methyl-2-(4-methylpentyl)-chroman-6-ol] | IC50 (PC-3 cells; [6]): 7 µM; Kd [1]: 0.5 µM
9 | – | CCc1ccc(CCC2(C)CCc3cc(O)cc(F)c3O2)cc1 (stereo not drawn) [Compound 13, 2-(4-ethylphenethyl)-8-fluoro-2-methyl-chroman-6-ol] | IC50 (PC-3 cells; [7]): 9 µM
8.5 | – | CCCCCCCCC1(C)CCc2cc(O)cc(F)c2O1 (stereo not drawn) [Compound 12, 8-fluoro-2-methyl-2-octylchroman-6-ol] | IC50 (PC-3 cells; [7]): 8.5 µM
28 | – | COc1cc(O)cc2c1OC(C)(CCCC(C)C)CC2 (stereo not drawn) [Compound 5, 8-methoxy-2-methyl-2-(4-methylpentyl)-chroman-6-ol] | IC50 (PC-3 cells; [6]): 28 µM; Kd [1]: 3.1 µM
– | 40 | CC(C)CCCC1(C)CCc2cc(O)ccc2O1 (racemic) [Compound 29, 2-methyl-2-(4-methylpentyl)chroman-6-ol] | –
7 | – | CC(C)CCCC1(C)CCc2cc(O)cc(Br)c2O1 (stereo not drawn) [Compound 8, 8-bromo-2-methyl-2-(4-methylpentyl)-chroman-6-ol] | IC50 (PC-3 cells; [6]): 7 µM; Kd [1]: 0.65 µM
– | 40 | COc1ccc2c(c1)CCC(C)(CCCC(C)C)O2 (racemic) [Compound 30, 6-methoxy-2-methyl-2-(4-methylpentyl)-chroman] | –
– | 20 | Cc1c(O)cc2c(c1C)OC(C)(CCCC(C)C)CC2 (racemic) [rac-VE5] | –
